*: point of attachment. Cbz = O=C(OCc1ccccc1)*; CH2F = FC*
Legend:
[1] = tested on: 34 kDa Mst kinase fragment; test: In-gel kinase assay of lysates of treated osteoclast-like cells; type: cell-based, mice; details: for activation of a 34 kDa Kinase: FIG. 3; for activation of the 34 kDa Mst Kinase fragment: FIG. 2
Protocol: (§1) Murine co-cultures of osteoblasts and marrow cells are prepared using the methods of Wesolowski, et al., Exp Cell Res, (1995), 219, pp. 679-686, which is incorporated by reference herein in its entirety. Bone marrow cells are harvested from 6-week-old male Balb/C mice by flushing marrow spaces of freshly isolated long bones (tibiae and femora) with α-MEM (minimal essential media) containing penicillin/streptomycin (100 I.U./ml of each and 20 mM Hepes buffer). The bone marrow cells are suspended in α-MEM and the cells are filtered through an approximately 70 μm cell strainer. The filtrate is centrifuged at about 300×g for about 7 minutes. The resulting pellet is resuspended in α-MEM supplemented with fetal calf serum (10% v/v) and 10 nM 1, 25-(OH)2 vitamin D3. These bone marrow isolates are added to sub-confluent monolayers of osteoblastic MB 1.8 cells in cell culture plates and cultured for 7 days at 37° C. in the presence of 5% CO2. Culture media is replenished ever other day. Fusion of the osteoclast precursor cells from bone marrow (with each other) to form multinucleated osteoclast-like cells typically occurs after about 7 days. Osteoclast-like cells are enriched by sequential treatment with collagenase (1 mg/mL in phosphate buffered saline) for one hour at 37° C. and EDTA (0.2 g/L in phosphate buffered saline) for 20 min at 37° C. Non-adherent cells are rinsed away by washing with phosphate buffered saline. Osteoclast-like cells which are resistant to the sequential treatments are present at about 95% purity and are maintained in α-MEM supplemented with fetal calf serum (10% v/v), 10 nM 1,25-(OH)2 vitamin D3, macrophage-colony-stimulating factor (5 ng/mL).
(§2) The compounds to be evaluated are prepared as a solution of the desired concentration in α-MEM. Examples of compounds that can be evaluated include nitrogen-containing bisphosphonates such as alendronate monosodium trihydrate, as well as compounds that block the effects of these inhibitors, such as caspase inhibitors such as Z-Val-Ala-Asp-FMK, Z-Asp-Glu-Val-Asp-FMK, and Z-Tyr-Val-Ala-Asp-FMK. Combinations of compounds can also be evaluated. The solutions of the compounds to be evaluated are added to the cultures for a time period of 17-24 hours. No treatment controls (controls not treated with comcpounds) are prepared by adding equivalent volumes of α-MEM to the control dishes.
Cells are then harvested and lysed in a HEPES (N-(2-hydroxyethyl)piperazine-N′-(2-ethansulfonic acid) or Tris buffer containing the following: β-glycerophosphate (50 mM); Na3VO4 (1 mM); NaF (1 mM); Microcystin LR (1 μM); leupeptin (10 μg/ml); aprotinin (10 μg/ml); phenylmethyl sulfonylfluoride (1 mM). Protein concentrations are determined for each lysate and 5-20 μg are loaded into each lane of a SDS-PAGE (sodium dodecyl sulfate-polyacrylamide gel electrophoresis) gel containing Myelin Basic Protein, or another kinase substrate, which has been polymerized into the gel at a concentration between 50-400 μg/ml. Molecular weight standards are also loaded into one or more lanes of the gels. In-gel kinase assays are run according to a standard procedure based on Kameshita and Fujisawa, 1989 (Anal. Biochem. 183:139-143) and of Gotoh et al., 1990 (Eur. J. Biochem. 193: 661-669), both references being incorporated by reference herein in their entirety. The proteins are electrophoresed in the above gels. The gels are then successively soaked in 50 mM HEPES, pH 7.6; 5 mM 2-mercaptoethanol and each of the following (for each wash): (a) 20% isopropanol; (b) no additions; (c) urea (6 M); (d) Urea (3 M); (e) Urea (0.75 M); and Tween 20 (0.05% vol:vol). Kinase reactions are then run by first soaking the gels in 20 mM HEPES, pH 7.6; 20 mM MgCl2; 2 mM DTT and then in the same buffer containing […] ATP (non-radioactive) with ca. 1000 cpm/pmol ^32P-γ-ATP. The gels are then washed six times with 5% trichloroacetic acid and 1% pyrophosphate.

Mst 1 = test: In-gel kinase assay using myelin basic protein as a substrate, purified osteoclast-like cells (FIG. 4); type: cell-based, mice; details: for effect of caspase inhibitor on activation of Mst 1 by alendronate monosodium trihydrate: 20 μM caspase inhibitor with 30 μM alendronate monosodium trihydrate, FIG. 4 lanes 6-8
Protocol: as §1, with “Osteoclast-like cells which are resistant to the sequential treatments are present at about 95% purity and are maintained in α-MEM supplemented with fetal calf serum (10% v/v), 10 nM 1,25-(OH)2 vitamin D3, macrophage-colony-stimulating factor (5 ng/mL).” left out
as §2, with “No treatment controls (controls not treated with comcpounds) are prepared by adding equivalent volumes of α-MEM to the control dishes.” left out
Cells are then harvested and lysed in a HEPES (N-(2-hydroxyethyl)piperazine-N′-(2-ethansulfonic acid) or Tris buffer containing the following: β-glycerophosphate (50 mM); Na3VO4 (1 mM); NaF (1 mM); Microcystin LR (1 μM); leupeptin (10 μg/ml); aprotinin (10 μg/ml); phenylmethyl sulfonylfluoride (1 mM). Protein concentrations are determined for each lysate and 5-20 μg are loaded into each lane of a SDS-PAGE (sodium dodecyl sulfate-polyacrylamide gel electrophoresis) gel containing Myelin Basic Protein, or another kinase substrate, which has been polymerized into the gel at a concentration between 50-400 μg/ml. […]

osteoclast = test: Osteoclast cell cultures and bone resorption assays; type: cell-based
[2] = tested on: Mst (mammalian Sterile-20-like kinase); test: Bisphosphonate-induced cleavage of Mst in osteoclasts; type: cell-based

Row | Compound | activation of the 34 kDa Mst Kinase fragment ([1]; 30 μM, about 17 hours) | activation of the 34 kDa Mst Kinase fragment ([1]; 100 μM, about 17 hours) | activation of a 34 kDa Kinase ([1]; 100 μM, 17 hours) | activation of a 34 kDa Kinase ([1]; 300 μM, 17 hours) | effect of caspase inhibitor on activation of Mst 1 by alendronate monosodium trihydrate (Mst 1) | effect on the inhibitory effect otherwise observed with a bisphosphonate such as alendronate monosodium trihydrate (osteoclast) | further results
1 | NCCCC(O)(P(=O)(O)O)P(=O)(O)O [alendronate monosodium trihydrate, 4-amino-1-hydroxybutylidene-1,1-bisphosphonic acid monosodium trihydrate] | activation | activation | – | – | – | – | activation of a 34 kDa Kinase ([1]; 10 μM, about 17 hours): activation; activation of the 34 kDa Mst Kinase fragment immunoprecipitated by anti-Mst and anti-Krs antibody cocktail ([1]; 30 μM, FIG. 1 lane 3): activated; activation of a 34 kDa Kinase ([1]; 30 μM, about 17 hours): activation; activation of Mst 1 (Mst 1; 30 μM, osteoclast-like cells, FIG. 4): activation
2 | CC(O)(P(=O)(O)O)P(=O)(O)O [etidronate disodium] | fail to activate | fail to activate | fail to activate | fail to activate | – | – | –
3 | O=P(O)(O)C(Sc1ccc(Cl)cc1)P(=O)(O)O [tiludronate disodium] | fail to activate | fail to activate | fail to activate | fail to activate | – | – | –
4 | Cbz-Val-Ala-Asp-CH2F | – | – | – | – | blocked | can block the inhibitory effect | activation of the 34 kDa Kinase by alendronate when coincubated with the caspase inhibitor ([1]; coincubation with alendronate, FIG. 3 lane 8): does not activate; effect on cleavage of Mst induced by bisphosphonates such as alendronate monosodium trihydrate [2]: prevent the cleavage of Mst
5 | Z-Asp-Glu-Val-Asp-FMK (Cbz-DEVD-CH2F; SMILES CC(C)[C@H](NC(=O)[C@H](CCC(=O)O)NC(=O)[C@H](CC(=O)O)NC(=O)OCc1ccccc1)C(=O)N[C@@H](CC(=O)O)C(=O)CF) | – | – | – | – | blocked | can block the inhibitory effect | –
6 | Z-Tyr-Val-Ala-Asp-FMK (Cbz-YVAD-CH2F; SMILES CC(C)[C@H](NC(=O)[C@H](Cc1ccc(O)cc1)NC(=O)OCc1ccccc1)C(=O)N[C@@H](C)C(=O)N[C@@H](CC(=O)O)C(=O)CF) | – | – | – | – | blocked | can block the inhibitory effect | –

Source: patent publication US20030078211A1, “Compositions and methods for inhibiting bone resorption” (Merck & Co., Inc., priority 1998, published 2003)
